Experimental data from patent US12583858B2 (Genentech, Inc., priority 2015, dated 2026).
pEC50: −log10 of the molar value.

The compounds below were run against T1, TDO2 (Homo sapiens, UniProt P48775) (assay: TDO2 cell assay (NFK GreenScreen, SW48 cells)). Conditions: SW48 cells (high TDO expressing), 200 uM tryptophan, 24 hours; Table 3; read-out: TDO2 Cell Fluor EC50.
T1 construct: decreased levels of NFK in SW48 cells (high TDO expressing cells)
Assay type: cell-based

T1 sequence (P48775 whole entry): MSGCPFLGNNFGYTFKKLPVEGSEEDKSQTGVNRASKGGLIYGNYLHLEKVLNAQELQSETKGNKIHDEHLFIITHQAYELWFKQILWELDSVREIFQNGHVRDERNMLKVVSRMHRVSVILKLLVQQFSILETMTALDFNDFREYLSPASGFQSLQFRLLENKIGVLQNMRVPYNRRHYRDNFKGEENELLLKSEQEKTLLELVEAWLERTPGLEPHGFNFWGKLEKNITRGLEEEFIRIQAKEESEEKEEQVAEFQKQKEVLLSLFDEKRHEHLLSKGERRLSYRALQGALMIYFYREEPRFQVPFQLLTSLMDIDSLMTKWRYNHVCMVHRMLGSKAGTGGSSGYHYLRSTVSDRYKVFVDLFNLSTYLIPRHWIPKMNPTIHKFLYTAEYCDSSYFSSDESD

Question: With `O[C@H]1CCC(F)(F)C[C@H]1[C@H]1c2ccccc2-c2cncn21` [Example 18a, (1S,2S)-4,4-difluoro-2-((S)-5H-imidazo[5,1-a]isoindol-5-yl)cyclohexan-1-ol] as the compound, how does the pEC50 read?
Answer: Its pEC50 is 7.19.

Question: How did the pEC50 turn out when `O[C@@H]1CCC(F)(F)C[C@@H]1[C@@H]1c2ccccc2-c2cncn21` [Example 18e, (1R,2R)-4,4-difluoro-2-((R)-5H-imidazo[5,1-a]isoindol-5-yl)cyclohexan-1-ol] was run?
Answer: Its pEC50 is 5.12.

Question: With `CC1(C)C[C@H](O)[C@@H]1[C@H]1c2ccccc2-c2cncn21` [Example 22a, (1S,2S)-2-((S)-5H-imidazo[5,1-a]isoindol-5-yl)-3,3-dimethylcyclobutan-1-ol] as the compound, how does the pEC50 read?
Answer: The pEC50 was 7.22.

Question: With `CC1(C)C[C@H](O)[C@H]1[C@@H]1c2ccccc2-c2cncn21` [Example 22c, (1S,2R)-2-((R)-5H-imidazo[5,1-a]isoindol-5-yl)-3,3-dimethylcyclobutan-1-ol] as the compound, how does the pEC50 read?
Answer: Its pEC50 is under 4.60.

Question: How did the pEC50 turn out when `CC1(C)C[C@@H](O)[C@H]1[C@@H]1c2ccccc2-c2cncn21` [Example 22e, (1R,2R)-2-((R)-5H-imidazo[5,1-a]isoindol-5-yl)-3,3-dimethylcyclobutan-1-ol] was run?
Answer: The pEC50 was 5.46.

Question: How did the pEC50 turn out when `N#CCN1CC[C@H]([C@H]2c3ccccc3-c3cncn32)[C@@H](O)C1` [Example 27c, 2-((3R,4R)-3-hydroxy-4-((S)-5H-imidazo[5,1-a]isoindol-5-yl)piperidin-1-yl)acetonitrile] was run?
Answer: The pEC50 was under 4.60.

Question: How did the pEC50 turn out when `O[C@@H]1c2cccnc2CC[C@@H]1[C@@H]1c2ccccc2-c2cncn21` [Example 31a, (5S,6R)-6-((R)-5H-imidazo[5,1-a]isoindol-5-yl)-5,6,7,8-tetrahydroquinolin-5-ol] was run?
Answer: The pEC50 was under 4.60.

Question: `O[C@H]1c2cccnc2CC[C@@H]1[C@H]1c2ccccc2-c2cncn21` [Example 31b, (5R,6R)-6-((S)-5H-imidazo[5,1-a]isoindol-5-yl)-5,6,7,8-tetrahydroquinolin-5-ol] was tested. Which pEC50 did it give?
Answer: The pEC50 was 5.85.

Question: With `O[C@@H]1c2cccnc2CC[C@H]1[C@@H]1c2ccccc2-c2cncn21` [Example 31g, (5S,6S)-6-((R)-5H-imidazo[5,1-a]isoindol-5-yl)-5,6,7,8-tetrahydroquinolin-5-ol] as the compound, how does the pEC50 read?
Answer: Its pEC50 is 5.74.

Question: `O[C@H]1c2cccnc2CC[C@H]1[C@H]1c2ccccc2-c2cncn21` [Example 31h, (5R,6S)-6-((S)-5H-imidazo[5,1-a]isoindol-5-yl)-5,6,7,8-tetrahydroquinolin-5-ol] was tested. Which pEC50 did it give?
Answer: Its pEC50 is 6.92.

Question: `N[C@@H]1COC[C@@H]1[C@@H]1c2ccccc2-c2cncn21` [Example 32a, (3S,4S)-4-[(5R)-5H-imidazo[4,3-a]isoindol-5-yl]oxolan-3-amine] was tested. Which pEC50 did it give?
Answer: The pEC50 was under 4.60.

Question: How did the pEC50 turn out when `N[C@H]1COC[C@H]1[C@H]1c2ccccc2-c2cncn21` [Example 32b, (3R,4R)-4-[(5S)-5H-imidazo[4,3-a]isoindol-5-yl]oxolan-3-amine] was run?
Answer: Its pEC50 is 4.96.

Question: With `N[C@@H]1COC[C@@H]1[C@H]1c2ccccc2-c2cncn21` [Example 32d, (3S,4S)-4-[(5S)-5H-imidazo[4,3-a]isoindol-5-yl]oxolan-3-amine] as the compound, how does the pEC50 read?
Answer: Its pEC50 is under 4.60.

Question: How did the pEC50 turn out when `O[C@@H]1CCOC[C@H]1[C@@H]1c2ccc(F)cc2-c2cncn21` [Example 34d, (3R,4R)-3-((R)-8-fluoro-5H-imidazo[5,1-a]isoindol-5-yl)-tetrahydro-2H-pyran-4-ol] was run?
Answer: Its pEC50 is 6.64.

Question: `NS(=O)(=O)N1CC[C@@H]([C@H]2c3ccccc3-c3cncn32)[C@H](O)C1` [Example 39a, (3S,4S)-3-hydroxy-4-((S)-5H-imidazo[5,1-a]isoindol-5-yl)piperidine-1-sulfonamide] was tested. Which pEC50 did it give?
Answer: The pEC50 was under 4.60.

Question: `C[C@@H](O)[C@@H]1c2ccccc2-c2cncn21` [Example 42a, (R)-1-((S)-5H-imidazo[5,1-a]isoindol-5-yl)ethan-1-ol] was tested. Which pEC50 did it give?
Answer: Its pEC50 is under 4.60.

Question: `C[C@@H](O)[C@H]1c2ccccc2-c2cncn21` [Example 42b, (R)-1-((R)-5H-imidazo[5,1-a]isoindol-5-yl)ethan-1-ol] was tested. Which pEC50 did it give?
Answer: The pEC50 was 4.93.

Question: With `C[C@H](O)[C@@H]1c2ccccc2-c2cncn21` [Example 42d, (S)-1-((S)-5H-imidazo[5,1-a]isoindol-5-yl)ethan-1-ol] as the compound, how does the pEC50 read?
Answer: The pEC50 was 4.63.

Question: `OC1(C2c3ccccc3-c3cncn32)CC(F)(F)C1` (centres unmarked) [Example 50, 3,3-difluoro-1-(5H-imidazo[5,1-a]isoindol-5-yl)cyclobutan-1-ol] was tested. Which pEC50 did it give?
Answer: Its pEC50 is 5.59.

Question: With `O[C@@H]1c2ccnn2CC[C@@H]1[C@@H]1c2ccccc2-c2cncn21` [Example 56c, (4S,5R)-5-((R)-5H-imidazo[5,1-a]isoindol-5-yl)-4,5,6,7-tetrahydropyrazolo[1,5-a]pyridin-4-ol] as the compound, how does the pEC50 read?
Answer: The pEC50 was under 4.60.

Question: How did the pEC50 turn out when `O[C@H]1c2ccnn2CC[C@@H]1[C@@H]1c2ccccc2-c2cncn21` [Example 56d, (4R,5R)-5-((R)-5H-imidazo[5,1-a]isoindol-5-yl)-4,5,6,7-tetrahydropyrazolo[1,5-a]pyridin-4-ol] was run?
Answer: Its pEC50 is under 4.60.

Question: How did the pEC50 turn out when `O[C@H]1c2ccnn2CC[C@H]1[C@H]1c2ccccc2-c2cncn21` [Example 56e, (4R,5S)-5-((S)-5H-imidazo[5,1-a]isoindol-5-yl)-4,5,6,7-tetrahydropyrazolo[1,5-a]pyridin-4-ol] was run?
Answer: The pEC50 was 6.12.

Question: `O[C@@H]1[C@@H]([C@H]2c3ccccc3-c3cncn32)CC12CCOCC2` [Example 57a, (1R,2R)-2-((S)-5H-imidazo[5,1-a]isoindol-5-yl)-7-oxaspiro[3.5]nonan-1-ol] was tested. Which pEC50 did it give?
Answer: Its pEC50 is 4.96.

Question: With `Cc1cc2c(cn1)[C@@H](O)[C@@H]([C@H]1c3ccccc3-c3cncn31)C2` [Example 59a, (6R,7S)-6-((S)-5H-imidazo[5,1-a]isoindol-5-yl)-3-methyl-6,7-dihydro-5H-cyclopenta[c]pyridin-7-ol] as the compound, how does the pEC50 read?
Answer: The pEC50 was 6.02.

Question: With `Cc1cc2c(cn1)[C@H](O)[C@H]([C@@H]1c3ccccc3-c3cncn31)C2` [Example 59b, (6S,7R)-6-((R)-5H-imidazo[5,1-a]isoindol-5-yl)-3-methyl-6,7-dihydro-5H-cyclopenta[c]pyridin-7-ol] as the compound, how does the pEC50 read?
Answer: The pEC50 was 6.09.

Question: With `NC(=O)c1ccc2c(c1)CC[C@@H]([C@H]1c3ccccc3-c3cncn31)[C@H]2O` [Example 60f, (5R,6S)-5-hydroxy-6-((S)-5H-imidazo[5,1-a]isoindol-5-yl)-5,6,7,8-tetrahydronaphthalene-2-carboxamide] as the compound, how does the pEC50 read?
Answer: The pEC50 was 7.24.

Question: How did the pEC50 turn out when `O[C@@H]1c2ncccc2CC[C@H]1[C@H]1c2ccccc2-c2cncn21` [Example 63a, (7S,8S)-7-((S)-5H-imidazo[5,1-a]isoindol-5-yl)-5,6,7,8-tetrahydroquinolin-8-ol] was run?
Answer: Its pEC50 is 7.21.

Question: With `O[C@H]1c2ncccc2CC[C@H]1[C@H]1c2ccccc2-c2cncn21` [Example 63c, (7S,8R)-7-((S)-5H-imidazo[5,1-a]isoindol-5-yl)-5,6,7,8-tetrahydroquinolin-8-ol] as the compound, how does the pEC50 read?
Answer: The pEC50 was 4.70.

Question: `CS(=O)(=O)N1CC[C@@H]([C@@H]2c3ccccc3-c3cncn32)[C@H](O)C1` [Example 64a, (3S,4S)-4-((R)-5H-imidazo[5,1-a]isoindol-5-yl)-1-(methylsulfonyl)piperidin-3-ol] was tested. Which pEC50 did it give?
Answer: Its pEC50 is under 4.60.

Question: With `CS(=O)(=O)N1CCC(C2c3ccccc3-c3cncn32)C(O)C1` [Example 64c, (3R,4R)-4-((R)-5H-imidazo[5,1-a]isoindol-5-yl)-1-(methylsulfonyl)piperidin-3-ol] as the compound, how does the pEC50 read?
Answer: The pEC50 was under 4.60.

Question: With `CC1(C)COC[C@@H]([C@H]2c3ccccc3-c3cncn32)[C@H]1O` [Example 66a, (4R,5R)-5-((S)-5H-imidazo[5,1-a]isoindol-5-yl)-3,3-dimethyltetrahydro-2H-pyran-4-ol] as the compound, how does the pEC50 read?
Answer: The pEC50 was under 4.60.

Question: `O[C@H]1[C@@H]([C@@H]2c3ccccc3-c3cncn32)CCC12CCOCC2` [Example 68a, (1S,2R)-2-((R)-5H-imidazo[5,1-a]isoindol-5-yl)-8-oxaspiro[4.5]decan-1-ol] was tested. Which pEC50 did it give?
Answer: The pEC50 was 5.17.

Question: With `CNS(=O)(=O)N1CC[C@H]([C@H]2c3ccccc3-c3cncn32)[C@@H](O)C1` [Example 74a, (3R,4R)-3-hydroxy-4-((S)-5H-imidazo[5,1-a]isoindol-5-yl)-N-methylpiperidine-1-sulfonamide] as the compound, how does the pEC50 read?
Answer: Its pEC50 is 5.40.

Question: How did the pEC50 turn out when `CNS(=O)(=O)N1CC[C@@H]([C@H]2c3ccccc3-c3cncn32)[C@H](O)C1` [Example 74b, (3S,4S)-3-hydroxy-4-((S)-5H-imidazo[5,1-a]isoindol-5-yl)-N-methylpiperidine-1-sulfonamide] was run?
Answer: Its pEC50 is 6.96.

Question: How did the pEC50 turn out when `CN(C)S(=O)(=O)N1CC[C@H]([C@H]2c3ccccc3-c3cncn32)[C@@H](O)C1` [Example 78a] was run?
Answer: The pEC50 was 5.35.

Question: With `CN(C)S(=O)(=O)N1CC[C@@H]([C@H]2c3ccccc3-c3cncn32)[C@H](O)C1` [Example 78b] as the compound, how does the pEC50 read?
Answer: Its pEC50 is 6.80.

Question: How did the pEC50 turn out when `O[C@H]1CN(CC(F)(F)F)CC[C@@H]1[C@H]1c2ccccc2-c2cncn21` [Example 82a, (3R,4R)-4-((S)-5H-imidazo[5,1-a]isoindol-5-yl)-1-(2,2,2-trifluoroethyl)piperidin-3-ol] was run?
Answer: The pEC50 was 5.36.

Question: How did the pEC50 turn out when `O[C@@H]1CN(CC(F)(F)F)CC[C@H]1[C@H]1c2ccccc2-c2cncn21` [Example 82b, (3S,4S)-4-((S)-5H-imidazo[5,1-a]isoindol-5-yl)-1-(2,2,2-trifluoroethyl)piperidin-3-ol] was run?
Answer: Its pEC50 is 6.48.

Question: With `CN1CC[C@H]([C@H]2c3ccccc3-c3cncn32)[C@@H](O)C1` [Example 83a, (3R,4R)-4-[(5S)-5H-imidazo[4,3-a]isoindol-5-yl]-1-methylpiperidin-3-ol] as the compound, how does the pEC50 read?
Answer: The pEC50 was under 4.60.

Question: `CN1CC[C@@H]([C@H]2c3ccccc3-c3cncn32)[C@H](O)C1` [Example 83b, (3S,4S)-4-((S)-5H-imidazo[5,1-a]isoindol-5-yl)-1-methylpiperidin-3-ol] was tested. Which pEC50 did it give?
Answer: Its pEC50 is 5.85.

Question: How did the pEC50 turn out when `O[C@@H]1CC2(COC2)[C@H]1[C@@H]1c2ccccc2-c2cncn21` [Example 87b, (5S,6R)-5-((R)-5H-imidazo[5,1-a]isoindol-5-yl)-2-oxaspiro[3.3]heptan-6-ol] was run?
Answer: The pEC50 was 6.52.

Question: `O[C@@H]1c2ccccc2CC[C@H]1[C@H]1c2ccccc2-c2cncn21` [Example 102e, (1S,2S)-2-((S)-5H-imidazo[5,1-a]isoindol-5-yl)-1,2,3,4-tetrahydronaphthalen-1-ol] was tested. Which pEC50 did it give?
Answer: Its pEC50 is 7.49.

Question: `O[C@H]1c2ccccc2CC[C@@H]1[C@@H]1c2ccccc2-c2cncn21` [Example 102f, (1R,2R)-2-((R)-5H-imidazo[5,1-a]isoindol-5-yl)-1,2,3,4-tetrahydronaphthalen-1-ol] was tested. Which pEC50 did it give?
Answer: Its pEC50 is 5.27.

Question: `O[C@@H]1CN(C2COC2)CC[C@H]1[C@H]1c2ccccc2-c2cncn21` [Example 103, (3S,4S)-4-((S)-5H-imidazo[5,1-a]isoindol-5-yl)-1-(oxetan-3-yl)piperidin-3-ol] was tested. Which pEC50 did it give?
Answer: The pEC50 was 4.92.
